Non-standard residues stand in square brackets, D forms with d. methoxy‑PEG 20 kDa = linear 20 kDa methoxy-PEG conjugated through D-Cys sulfur
Test system: melanoma cells derived from patient with BRAF mutation in zebrafish
Experiment: Zebrafish xenotransplant with melanoma cells from a patient with BRAF mutation
Type: in vivo
Conditions: embryos with metastasis counted 5 days post injection, versus control
Procedure: FIG. 11. The peptide reduces initial metastasis formation in zebrafish injected with melanoma cells. Metastatic melanoma cells from a patient with BRAF mutation were treated with the peptide, DTIC, the peptide in combination with DTIC, DTIC alone, BRAF inhibitor or left untreated. They were stained with Vibrant Cell Labelling Solution (red) and injected into the yolk of transparent zebrafish larvae and monitored. The number of embryos with metastasis was counted at 5 days post injection.
The use of melanoma biopsies was approved by the ethical committee (Comitato Etico dell'Area Vasta Emilia Nord). Biopsies were taken from the University Hospital Policlinico of Modena and patient gave inform consent. […]
Zebrafish handling was performed at the Zebrafish Centre of the University of Padova, Italy, under ethical committee (OPBA) authorization 407/2015-PR. […] Zebrafishes were monitored daily and documented from 1 day post injection (dpi) up to 1 week (experimental endpoint). […]
For xenotransplantation, albino embryos were mechanically dechorionated at 2 days post-fertilisation, anesthetized with tricaine 0.16 mg/ml and placed along plastic lanes immersed in 2% methylcellulose/PBS. […] Stained cells were loaded in a glass capillary needle and microinjected into the yolk (about 50 cells/embryo), Xenotransplanted embryos were monitored daily and documented from one day post injection up to one week.

Question: Which “metastasis formation in zebrafish” value does the source give for “Ac-DMet-DLeu-Gly-DIle-DIle-DAla-Gly-DLys-DAsn-DSer-Gly-DCys-NH2 with a linear 20 kDa methoxy-PEG polymer conjugated to the D-Cys residue through the sulfur atom of the latter (Ac-[dM][dL]G[dI][dI][dA]G[dK][dN][dS]G[dC](methoxy‑PEG 20 kDa)-NH2) [XYZ]” here?
Answer: reduces metastasis formation

— patent US20230137491A1, “PEPTIDES AND USES THEREOF” (SINTICA BIOTECH SOCIETÀ A RESPONSABILITÀ LIMITATA …, priority 2020, published 2023)
